Measurements from patent US20250325687A1, “CONJUGATE COMPRISING TOLL-LIKE RECEPTOR AGONIST” (MABSOFT THERAPEUTICS (SHANGHAI) CO., LTD., priority 2022, published 2025).
Read-outs that look alike come from different tables or passages of the source.

Key:
Assay type in all cases: cell-based
[1] = biological target: T1, hTLR7 (human Toll-like receptor 7) (Homo sapiens, UniProt Q9NYK1); test: hTLR7 cell assay (HEK-Blue hTLR7 reporter cells); conditions: 24 hours, OD 650 nm
T1 construct: host or cells: HEK-Blue hTLR7 (HEK293-derived reporter cells)
T1 sequence (Q9NYK1 27-1049): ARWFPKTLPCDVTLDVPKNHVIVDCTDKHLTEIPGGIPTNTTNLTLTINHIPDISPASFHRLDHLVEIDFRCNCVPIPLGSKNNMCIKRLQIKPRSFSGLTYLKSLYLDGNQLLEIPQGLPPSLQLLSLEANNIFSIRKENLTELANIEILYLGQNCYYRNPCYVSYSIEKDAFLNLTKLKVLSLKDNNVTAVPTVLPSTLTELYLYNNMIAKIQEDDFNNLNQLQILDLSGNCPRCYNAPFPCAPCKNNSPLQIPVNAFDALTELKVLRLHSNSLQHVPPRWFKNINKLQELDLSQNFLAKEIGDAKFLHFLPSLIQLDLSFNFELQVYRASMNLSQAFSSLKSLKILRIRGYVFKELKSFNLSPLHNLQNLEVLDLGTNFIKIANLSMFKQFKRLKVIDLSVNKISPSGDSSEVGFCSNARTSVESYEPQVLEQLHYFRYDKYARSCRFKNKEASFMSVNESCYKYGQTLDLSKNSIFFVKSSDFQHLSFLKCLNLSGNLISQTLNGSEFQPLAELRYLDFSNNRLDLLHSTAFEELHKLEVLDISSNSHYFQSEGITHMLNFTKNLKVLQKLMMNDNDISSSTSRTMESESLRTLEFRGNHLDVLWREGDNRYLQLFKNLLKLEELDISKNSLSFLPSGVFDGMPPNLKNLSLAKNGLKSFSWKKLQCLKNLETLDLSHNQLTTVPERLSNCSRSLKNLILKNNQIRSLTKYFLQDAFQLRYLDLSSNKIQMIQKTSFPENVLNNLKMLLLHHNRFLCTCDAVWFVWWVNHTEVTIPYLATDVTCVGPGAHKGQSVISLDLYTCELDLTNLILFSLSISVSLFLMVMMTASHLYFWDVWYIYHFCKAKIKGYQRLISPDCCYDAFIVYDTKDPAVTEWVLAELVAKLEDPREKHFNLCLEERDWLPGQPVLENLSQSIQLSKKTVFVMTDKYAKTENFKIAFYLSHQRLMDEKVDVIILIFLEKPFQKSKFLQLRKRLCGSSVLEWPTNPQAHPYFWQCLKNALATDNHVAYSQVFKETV
Outline: (§1)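 HEK-Blue reporter cells in HEK-Blue Detection medium (50000 cells/mL) were exposed to test compounds for 24 hours at 37° C, 5% CO2. Agonism was read from supernatant incubated 1 hour at 37° C with QUANTI-Blue, measured as optical density at 650 nm.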

[2] = biological target: T2, hTLR8 (human Toll-like receptor 8) (Homo sapiens, UniProt Q9NR97); test: hTLR8 cell assay (HEK-Blue hTLR8 reporter cells); conditions: 24 hours, OD 650 nm
T2 construct: host or cells: HEK-Blue hTLR8 (HEK293-derived reporter cells)
T2 sequence (Q9NR97 27-1041): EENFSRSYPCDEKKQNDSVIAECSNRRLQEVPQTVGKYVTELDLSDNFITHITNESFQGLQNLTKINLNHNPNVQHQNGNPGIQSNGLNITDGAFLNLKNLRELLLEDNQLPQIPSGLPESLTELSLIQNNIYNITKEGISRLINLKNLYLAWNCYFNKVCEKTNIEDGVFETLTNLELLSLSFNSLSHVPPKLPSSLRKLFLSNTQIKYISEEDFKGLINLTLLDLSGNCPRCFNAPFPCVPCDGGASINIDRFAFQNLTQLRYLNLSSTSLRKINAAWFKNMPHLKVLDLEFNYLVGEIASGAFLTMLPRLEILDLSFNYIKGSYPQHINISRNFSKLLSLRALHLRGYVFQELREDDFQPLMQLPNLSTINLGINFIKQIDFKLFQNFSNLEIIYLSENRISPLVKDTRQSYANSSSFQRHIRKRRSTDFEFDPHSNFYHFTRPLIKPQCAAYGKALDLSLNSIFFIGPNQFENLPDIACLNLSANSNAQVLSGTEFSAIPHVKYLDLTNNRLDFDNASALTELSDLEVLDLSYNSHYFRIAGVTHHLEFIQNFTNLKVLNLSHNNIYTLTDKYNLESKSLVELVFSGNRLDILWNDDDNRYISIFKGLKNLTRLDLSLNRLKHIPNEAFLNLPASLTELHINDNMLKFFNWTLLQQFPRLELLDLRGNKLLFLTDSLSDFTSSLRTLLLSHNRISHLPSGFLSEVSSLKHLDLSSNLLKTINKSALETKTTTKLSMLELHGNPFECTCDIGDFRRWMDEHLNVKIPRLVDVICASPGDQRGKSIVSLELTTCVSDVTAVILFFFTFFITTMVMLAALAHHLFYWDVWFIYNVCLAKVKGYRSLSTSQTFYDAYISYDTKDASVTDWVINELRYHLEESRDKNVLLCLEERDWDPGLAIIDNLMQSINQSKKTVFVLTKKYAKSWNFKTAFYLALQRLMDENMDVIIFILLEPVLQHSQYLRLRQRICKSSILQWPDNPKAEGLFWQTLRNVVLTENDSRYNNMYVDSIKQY
Outline: as §1

[3] = system: human PBMC (human peripheral blood mononuclear cells); test: PBMC screening assay: induction of TNF-α production; conditions: read-out: EC50 (μM) TNF-α (hPBMC)
Method: The payload compounds of Formula (II′) were assayed to evaluate the induction of TNF-α production in human PBMC (human peripheral blood mononuclear cells).
Human peripheral blood mononuclear cells (PBMC) were obtained from Allcells. […] PBMC were incubated for 24 hours at 37° C. in a 5% CO2 humidified incubator. The following day PBMC plates were centrifuged at 500×g for 5 minutes and the growth media was removed. 200 μL of compound prepared in growth media at a series of diluted concentrations ranging from 2.54 nM to 50 μM were added to PBMC in duplicate and incubated for 24 hours at 37° C. in a 5% CO2 incubator. Prior to supernatant harvest, cells were spun at 500×g for 5 minutes to remove cell debris. TNF-α activity was assessed in the supernatant by ELISA (Elabscience) per the manufacturer's instructions. Optical density at 450 nm (ELISA) was analyzed using a plate reader.

[4] = human PBMC, 24 hours, TNF-α by ELISA, class symbols

SMILES	EC50 [1]	EC50 [2]	EC50 [3, 4]	EC50 ([3]; Homo sapiens, PBMC, 24 h)
CCOCc1nc2c(N)nc3cc(Cc4cccc(C(=O)NCCN)c4)ccc3c2n1CC(C)(C)O [Compound 151, 3-((4-amino-2-(ethoxymethyl)-1-(2-hydroxy-2-methylpropyl)-1H-imidazo[4,5-c]quinolin-7-yl)methyl)-N-(2-aminoethyl)benzamide]	1000 to 10000 nM	< 5000 nM	< 0.64 µM	–
CCOCc1nc2c(N)nc3cc(Cc4ccc(F)c(CN)c4)ccc3c2n1CC(C)(C)O [Compound 149]	< 1000 nM	< 5000 nM	< 0.64 µM	–
CCCCc1nc2c(N)nc3cc(Cc4ccc5c(c4)C(N)CC5)ccc3c2n1CC(C)(C)O (stereo not drawn) [Compound 61, 1-(4-amino-7-((3-amino-2,3-dihydro-1H-inden-5-yl)methyl)-2-butyl-1H-imidazo[4,5-c]quinolin-1-yl)-2-methylpropan-2-ol]	< 1000 nM	< 5000 nM	< 0.64 µM	–
CC(C)(O)Cn1c(CCCC(F)(F)F)nc2c(N)nc3cc(Cc4cccc(CN)c4)ccc3c21 [Compound 51, 1-(4-amino-7-(3-(aminomethyl)benzyl)-2-(4,4,4-trifluorobutyl)-1H-imidazo[4,5-c]quinolin-1-yl)-2-methylpropan-2-ol]	< 1000 nM	< 5000 nM	> 0.64 µM	–
CCCCc1nc2c(N)nc3cc(Cc4cccc(N5CCNCC5)c4)ccc3c2n1CC(C)(C)O [Compound 63, 1-(4-amino-2-butyl-7-(3-(piperazin-1-yl)benzyl)-1H-imidazo[4,5-c]quinolin-1-yl)-2-methylpropan-2-ol]	< 1000 nM	< 5000 nM	< 0.64 µM	–
CCCCc1nc2c(N)nc3cc(Cc4ccc(CCN)cc4)ccc3c2n1CC(C)(C)O [Compound 19, 1-(4-amino-7-(4-(2-aminoethyl)benzyl)-2-butyl-1H-imidazo[4,5-c]quinolin-1-yl)-2-methylpropan-2-ol]	< 1000 nM	< 5000 nM	–	< 0.64 µM
CCOCc1nc2c(N)nc3cc(Cc4ccccc4)ccc3c2n1CC1(OCCN)CC1 [Compound 44]	1000 to 10000 nM	< 5000 nM	–	> 0.64 µM

Now from value to compound, other results behind:

EC50 [1]	EC50 [2]	SMILES	EC50 [3, 4]	EC50 ([3]; Homo sapiens, PBMC, 24 h)
1000 to 10000 nM	< 5000 nM	CCCCc1nc2c(N)nc3cc(Cc4ccc(CCCN)cc4)ccc3c2n1CC(C)(C)O [Compound 15, 1-(4-amino-7-(4-(3-aminopropyl)benzyl)-2-butyl-1H-imidazo[4,5-c]quinolin-1-yl)-2-methylpropan-2-ol]	< 0.64 µM	–
< 1000 nM	< 5000 nM	CCCCc1nc2c(N)nc3cc(Cc4cccc(OCCN)c4)ccc3c2n1CC(C)(C)O [Compound 62, 1-(4-amino-7-(3-(2-aminoethoxy)benzyl)-2-butyl-1H-imidazo[4,5-c]quinolin-1-yl)-2-methylpropan-2-ol]	< 0.64 µM	–
1000 to 10000 nM	< 5000 nM	CCC[C@@H](C)c1nc2c(N)nc3cc(Cc4ccccc4)ccc3c2n1CC(C)(C)OCCN [Compound 30, (R)-1-(2-(2-aminoethoxy)-2-methylpropyl)-7-benzyl-2-(pentan-2-yl)-1H-imidazo[4,5-c]quinolin-4-amine]	> 0.64 µM	–
1000 to 10000 nM	< 5000 nM	CCOCc1nc2c(N)nc3cc(Cc4ccccc4)ccc3c2n1CC(C)(C)OCCN [Compound 23, 1-(2-(2-aminoethoxy)-2-methylpropyl)-7-benzyl-2-(ethoxymethyl)-1H-imidazo[4,5-c]quinolin-4-amine]	> 0.64 µM	–
< 1000 nM	< 5000 nM	CCCCc1nc2c(N)nc3cc(Cc4cccc(CNC)c4)ccc3c2n1CC(C)(C)O [Compound 20, 1-(4-amino-2-butyl-7-(3-((methylamino)methyl)benzyl)-1H-imidazo[4,5-c]quinolin-1-yl)-2-methylpropan-2-ol]	< 0.64 µM	–
1000 to 10000 nM	< 5000 nM	CCCCc1nc2c(N)nc3cc(Cc4cccc(CNC(=O)CN)c4)ccc3c2n1CC(C)(C)O [Compound 66, 2-amino-N-(3-((4-amino-2-butyl-1-(2-hydroxy-2-methylpropyl)-1H-imidazo[4,5-c]quinolin-7-yl)methyl)benzyl)acetamide]	> 0.64 µM	–
1000 to 10000 nM	< 5000 nM	CCCC(F)(F)c1nc2c(N)nc3cc(Cc4cccc(CN)c4)ccc3c2n1CC(C)(C)O [Compound 52, 1-(4-amino-7-(3-(aminomethyl)benzyl)-2-(1,1-difluorobutyl)-1H-imidazo[4,5-c]quinolin-1-yl)-2-methylpropan-2-ol]	> 0.64 µM	–
1000 to 10000 nM	< 5000 nM	CCCCc1nc2c(N)nc3cc(Cc4cccc(NC(=O)CN)c4)ccc3c2n1CC(C)(C)O [Compound 65, 2-amino-N-(3-((4-amino-2-butyl-1-(2-hydroxy-2-methylpropyl)-1H-imidazo[4,5-c]quinolin-7-yl)methyl)phenyl)acetamide]	< 0.64 µM	–
1000 to 10000 nM	< 5000 nM	CCCCc1nc2c(N)nc3cc(Cc4cccc(C(=O)NCCN)c4)ccc3c2n1CC(C)(C)O [Compound 64, 3-((4-amino-2-butyl-1-(2-hydroxy-2-methylpropyl)-1H-imidazo[4,5-c]quinolin-7-yl)methyl)-N-(2-aminoethyl)benzamide]	< 0.64 µM	–
1000 to 10000 nM	< 5000 nM	CCCC(C)c1nc2c(N)nc3cc(Cc4ccccc4)ccc3c2n1CC(C)(C)OCCCN (stereo not drawn) [Compound 32, 1-(2-(3-aminopropoxy)-2-methylpropyl)-7-benzyl-2-(pentan-2-yl)-1H-imidazo[4,5-c]quinolin-4-amine]	> 0.64 µM	–
< 1000 nM	< 5000 nM	CCCCc1nc2c(N)nc3cc(Cc4ccc(F)c(CN)c4)ccc3c2n1CC(C)(C)O [Compound 68, 1-(4-amino-7-(3-(aminomethyl)-4-fluorobenzyl)-2-butyl-1H-imidazo[4,5-c]quinolin-1-yl)-2-methylpropan-2-ol]	< 0.64 µM	–
